# Source: the supplement of paper PMC10307832
# Key:
# Assay in all cases: relative viability (nuclei count vs DMSO), 5 days (fraction); higher = more cells survive
# Carboplatin + Olaparib = compound: C1CC(C1)(C(=O)O)C(=O)O.[NH2-].[NH2-].[Pt+2] [Carboplatin] + O=C(c1cc(Cc2n[nH]c(=O)c3ccccc23)ccc1F)N1CCN(C(=O)C2CC2)CC1 [Olaparib] (partner 8 µM)
# Outline: (§1)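 Lung cancer cell lines were seeded in 1536-well plates and dosed by pin tool the next day, with either a single drug or a fixed anchor-drug dose combined with five library-drug doses (not always all listed) spaced in √10 steps. Five days later, one step fixed the cells and stained their nuclei (final 0.05% Triton X-100, 1% formaldehyde, 1 ug/ml Hoechst), and nuclei were counted on 4× images. Relative viability is the nuclei count in treated wells divided by the count in vehicle wells, and each value is the median of duplicate plates.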
# Carboplatin + Tozasertib = compound: C1CC(C1)(C(=O)O)C(=O)O.[NH2-].[NH2-].[Pt+2] [Carboplatin] + Cc1cc(Nc2cc(N3CCN(C)CC3)nc(Sc3ccc(NC(=O)C4CC4)cc3)n2)n[nH]1 [Tozasertib] (partner 0.1 µM)
# Outline: as §1
# GSK126 + Phenformin = compound: CC[C@H](C)N1C=C(C2=C(C=C(C=C21)C3=CN=C(C=C3)N4CCNCC4)C(=O)NCC5=C(C=C(NC5=O)C)C)C [GSK126] + N=C(N)NC(=N)NCCc1ccccc1 [Phenformin] (partner 250 µM)
# Outline: as §1
# GSK126 + Linsitinib = compound: CC[C@H](C)N1C=C(C2=C(C=C(C=C21)C3=CN=C(C=C3)N4CCNCC4)C(=O)NCC5=C(C=C(NC5=O)C)C)C [GSK126] + C[C@]1(O)C[C@@H](c2nc(-c3ccc4ccc(-c5ccccc5)nc4c3)c3c(N)nccn32)C1 [Linsitinib] (partner 1 µM)
# Outline: as §1
Cell Line,relative viability (Carboplatin + Olaparib; first compound 0.08 µM),relative viability (Carboplatin + Olaparib; first compound 0.253 µM),relative viability (Carboplatin + Olaparib; first compound 0.8 µM),relative viability (Carboplatin + Olaparib; first compound 2.53 µM),relative viability (Carboplatin + Olaparib; first compound 8 µM),relative viability (Carboplatin + Tozasertib; first compound 0.08 µM),relative viability (Carboplatin + Tozasertib; first compound 0.253 µM),relative viability (Carboplatin + Tozasertib; first compound 0.8 µM),relative viability (Carboplatin + Tozasertib; first compound 2.53 µM),relative viability (Carboplatin + Tozasertib; first compound 8 µM),relative viability (GSK126 + Phenformin; first compound 0.08 µM),relative viability (GSK126 + Phenformin; first compound 0.253 µM),relative viability (GSK126 + Phenformin; first compound 0.8 µM),relative viability (GSK126 + Phenformin; first compound 2.53 µM),relative viability (GSK126 + Phenformin; first compound 8 µM),relative viability (GSK126 + Linsitinib; first compound 0.08 µM),relative viability (GSK126 + Linsitinib; first compound 0.253 µM),relative viability (GSK126 + Linsitinib; first compound 0.8 µM),relative viability (GSK126 + Linsitinib; first compound 2.53 µM),relative viability (GSK126 + Linsitinib; first compound 8 µM)
NCI-H2342,0.447,0.497,0.394,0.357,0.372,0.555,0.529,0.502,0.406,0.547,0.942,0.566,0.558,0.525,0.759,–,–,–,–,–
NCI-H441,0.465,0.497,0.499,0.486,0.259,0.746,0.687,0.508,0.454,0.469,0.991,0.727,0.708,0.946,0.826,0.684,0.583,0.599,0.578,0.651
NCI-H3122,0.644,0.584,0.562,0.559,0.622,0.371,0.336,0.381,0.329,0.411,0.405,0.367,0.364,0.351,0.319,1.03,0.998,0.86,1.05,1.04
HCC-78,0.888,0.851,0.574,0.684,0.726,0.413,0.335,0.431,0.483,0.465,0.816,0.773,0.604,0.646,0.692,0.662,0.547,0.518,0.465,0.47
HCC-827,0.61,0.651,0.639,0.593,0.564,0.441,0.414,0.413,0.418,0.397,0.408,0.385,0.441,0.388,0.411,1.03,0.965,0.948,0.875,0.964
Calu-6,0.582,0.552,0.541,0.475,0.298,–,–,–,–,–,–,–,–,–,–,1.14,0.97,–,0.989,1.07
NCI-H2009,0.65,0.653,0.658,0.594,0.437,0.848,0.694,0.76,0.613,0.45,0.506,0.467,0.442,0.43,0.359,1.3,1.18,1.27,1.18,1.2
NCI-H322M,0.761,0.818,0.779,0.686,0.65,0.534,0.532,0.56,0.481,0.479,0.826,0.787,0.849,0.875,0.817,0.953,0.949,0.884,1.01,0.937
NCI-H23,0.4,0.31,0.281,0.28,0.24,0.4,0.315,0.385,0.356,0.317,0.843,0.792,0.738,0.761,0.77,0.63,0.528,0.442,0.592,0.725
NCI-H1648,1.39,1.29,1.21,0.765,0.897,0.708,0.421,0.319,–,0.456,–,–,–,–,–,–,–,–,–,–
NCI-H358,0.713,0.636,0.593,0.498,0.43,0.113,0.101,0.107,0.108,0.114,0.465,0.306,0.379,0.402,0.299,0.939,0.768,0.785,0.675,0.738
NCI-H1944,0.388,0.469,0.369,0.367,0.366,0.245,0.247,0.263,0.24,0.237,0.194,0.196,0.183,0.168,0.178,1.48,1.18,1.15,1.22,1.33
NCI-H1755,0.861,0.895,0.88,0.854,0.784,0.57,0.587,0.543,0.535,0.484,0.656,0.637,0.614,0.562,0.555,1.01,1.04,1.01,0.967,1.03
NCI-H1792,0.72,0.548,0.412,0.289,0.265,–,–,–,–,–,0.344,–,0.262,0.255,0.228,0.561,0.639,0.51,0.571,0.498
NCI-H1563,–,–,–,–,–,–,–,–,–,–,0.665,0.676,0.654,0.596,0.646,1.2,1.11,1.16,1.12,1.26
NCI-H1650,0.85,0.815,0.752,0.492,0.471,0.473,0.342,0.427,0.348,0.373,0.531,0.404,0.44,0.361,0.358,–,–,–,–,–
NCI-H522,0.586,0.663,0.618,0.679,0.607,0.63,0.604,0.547,0.525,0.528,0.62,0.671,0.662,0.743,0.601,–,–,–,–,–
IA-LM,0.836,0.74,0.715,0.905,0.57,–,–,–,–,–,–,–,–,–,–,0.685,0.729,0.737,0.365,0.614
NCI-H1623,–,–,–,–,–,0.445,0.446,0.484,0.449,0.402,0.631,0.594,0.602,0.589,0.537,–,–,–,–,–
NCI-H2170,0.621,0.668,0.555,0.567,0.37,0.732,0.687,0.642,0.71,0.535,0.386,0.427,0.393,0.391,0.376,–,–,–,–,–
